Read-outs that look alike come from different tables or passages of the source.
Key:
[1] = target: BCL2 WT (Homo sapiens (Human), UniProt P10415); test: TR-FRET competitive binding assay, BCL2 WT
In short: (§1)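 Competitive TR-FRET displacement of fluorescein-PUMA peptide (2 or 20 nM) from 0.5 nM terbium-labelled N-terminal Halo-fusion BCL2 (1-207, wild type or mutant) or BCLXL (2-196), expressed in E. coli. Buffer 50 mM Hepes pH 7.5, 150 mM NaCl, 5% DMSO; 2 h at 23°C. 520/495 nm ratio fitted over 11 points for IC50, converted to Ki.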

[2] = target: BCL2 G101V (Homo sapiens, UniProt P10415, G101V); test: TR-FRET competitive binding assay, BCL2 G101V; conditions: BCL2 G101V; Ki determined from IC50; read-out: TR_FRET EKI_Bcl2 G101V
In short: as §1

[3] = test system: BCL2 G101V; test: TR-FRET competitive binding assay, BCL2 G101V; parameters: species or system human; conditions: for TR_FRET EKI G101V/WT selectivty ratio: ratio Ki BCL2 G101V / Ki BCL2 WT
In short: as §1

[4] = target: BCL2 D103Y (Homo sapiens, UniProt P10415, D103Y); test: TR-FRET competitive binding assay, BCL2 D103Y; conditions: Ki determined from IC50, read-out: TR_FRET EKI_Bcl2 D103Y
In short: as §1

[5] = target: BCLXL WT (Homo sapiens (Human), UniProt Q07817); test: TR-FRET competitive binding assay, BCLXL WT; conditions: for Ki: BCLXL WT, Ki determined from IC50, read-out: TR_FRET EKI BclxL; for TR_FRET EKI BCLxL/WT selectivty ratio: ratio Ki BCLxL / Ki BCL2 WT
In short: as §1

[6] = test system: KMS-12-PE Bcl-2 WT; test: In vitro cytotoxicity CellTiter-Glo 48 h, KMS-12-PE Bcl-2 WT; assay type: cell-based; conditions: Homo sapiens, KMS-12-PE, C50 = concentration needed to reach 50% of the cellular viability
In short: (§2)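 CTG luminescence read-out; C50 = concentration reaching 50% cellular viability. Cells: KMS-12-PE expressing Bcl-2 WT or G101V (lentiviral, TagRFP-sorted). 11-pt curve, 48 h, 37 °C/5% CO2.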

[7] = test system: KMS-12-PE Bcl-2 G101V; test: In vitro cytotoxicity CellTiter-Glo 48 h, KMS-12-PE Bcl-2 G101V; assay type: cell-based; conditions: for Ratio (G101V/WT): C50 KMS-12-PE Bcl-2 G101V over C50 KMS-12-PE Bcl-2 WT; for IC50: Homo sapiens, KMS-12-PE, 48 h, CellTiter-Glo, C50 = concentration needed to reach 50% of the cellular viability
In short: as §2

[8] = Ki determined from IC50, read-out: TR_FRET EKI_Bcl2 WT

Chain of BCLXL WT (Q07817 other isoform, or with tags, fused parts or gaps): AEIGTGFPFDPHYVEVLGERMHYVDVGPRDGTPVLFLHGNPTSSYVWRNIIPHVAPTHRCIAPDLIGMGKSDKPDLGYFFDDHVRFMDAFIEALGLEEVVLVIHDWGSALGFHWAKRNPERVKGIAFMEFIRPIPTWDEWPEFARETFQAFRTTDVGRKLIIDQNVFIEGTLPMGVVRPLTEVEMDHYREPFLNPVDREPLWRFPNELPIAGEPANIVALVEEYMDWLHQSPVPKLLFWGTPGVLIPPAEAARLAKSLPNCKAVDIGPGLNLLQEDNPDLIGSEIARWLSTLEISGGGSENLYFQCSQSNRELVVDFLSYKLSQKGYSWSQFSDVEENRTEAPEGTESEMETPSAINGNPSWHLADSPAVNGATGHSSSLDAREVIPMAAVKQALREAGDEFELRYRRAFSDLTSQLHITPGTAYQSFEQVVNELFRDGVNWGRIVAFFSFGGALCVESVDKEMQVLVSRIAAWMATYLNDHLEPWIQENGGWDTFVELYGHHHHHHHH

SMILES	Ki [1, 8]	Ki [2]	TR_FRET EKI G101V/WT selectivty ratio [3]	Ki [4]	Ki [5]	TR_FRET EKI BCLxL/WT selectivty ratio [5]	Ki ([1]; Ki determined from IC50, read-out: TR_FRET EKI_Bcl2)	TR_FRET EKI G101V/WT selectivty ([3]; ratio of Ki BCL2 G101V to BCL2 WT)	TR_FRET EKI BCLxL/WT selectivty ([5]; ratio of Ki BCLxL to BCL2 WT)	IC50 [6]	Ratio (G101V/WT) [7]	IC50 [7]
Cc1c(N(C(=O)c2cc(-c3cc4c(cc3C(=O)N3Cc5ccccc5C[C@H]3CN3CCC[C@H](C)C3)CN(C(=O)Cc3ccc(OCCN(C)C5CC5)cc3)CC4)n(C)c2C)c2ccc(O)cc2)cc(C#N)n1C [Example 139, N-(5-cyano-1,2-dimethyl-pyrrol-3-yl)-5-[2-[2-[4-[2-[cyclopropyl(methyl)amino]ethoxy]phenyl]acetyl]-7-[(3S)-3-[[(3S)-3-methyl-1-piperidyl]methyl]-3,4-dihydro-1H-isoquinoline-2-carbonyl]-3,4-dihydro-1H-isoquinolin-6-yl]-N-(4-hydroxyphenyl)-1,2-dimethyl-pyrrole-3-carboxamide]	0.12 nM	1 nM	8.3	0.51 nM	5.7 nM	47.5	–	–	–	0.021 µM	5.4762	0.115 µM
Cc1c(N(C(=O)c2cc(-c3cc4c(cc3C(=O)N3Cc5ccccc5C[C@H]3CN3CCCCC3)CN(C(=O)Cc3ccc(OC(C)(C)CN5CCOCC5)cc3)CC4)n(C)c2C)c2ccc(O)cc2)cc(C#N)n1C [Example 132, N-(5-cyano-1,2-dimethyl-1H-pyrrol-3-yl)-N-(4-hydroxyphenyl)-1,2-dimethyl-5-{2-[2-(4-{[2-methyl-1-(morpholin-4-yl)propan-2-yl]oxy}phenyl)acetyl]-7-[(3S)-3-[(piperidin-1-yl)methyl]-1,2,3,4-tetrahydroisoquinoline-2-carbonyl]-1,2,3,4-tetrahydroisoquinolin-6-yl}-1H-pyrrole-3-carboxamide]	0.14 nM	2.9 nM	20.4	0.37 nM	12 nM	85.7	–	–	–	0.066 µM	7.2727	0.48 µM
Cc1c(N(C(=O)c2cc(-c3cc4c(cc3C(=O)N3Cc5ccccc5C[C@H]3CN3CCCCC3)CN(C(=O)Cc3ccc(OCCN(C)CC5COC5)cc3)CC4)n(C)c2C)c2ccc(O)cc2)cc(C#N)n1C [Example 104, N-(5-cyano-1,2-dimethyl-1H-pyrrol-3-yl)-N-(4-hydroxyphenyl)-1,2-dimethyl-5-(2-{2-[4-(2-{methyl[(oxetan-3-yl)methyl]amino}ethoxy)phenyl]acetyl}-7-[(3S)-3-[(piperidin-1-yl)methyl]-1,2,3,4-tetrahydroisoquinoline-2-carbonyl]-1,2,3,4-tetrahydroisoquinolin-6-yl)-1H-pyrrole-3-carboxamide]	0.07 nM	0.4 nM	5.8	0.17 nM	2.6 nM	40.0	–	–	–	0.0166 µM	5.38	0.0893 µM
Cc1c(N(C(=O)c2cc(-c3cc4c(cc3C(=O)N3Cc5ccccc5C[C@H]3C)CN(C(=O)Cc3ccc(OCCN5CC(F)C5)cc3)CC4)n(C)c2C)c2ccc(O)cc2)cc(C#N)n1C [Example 49, N-(5-cyano-1,2-dimethyl-1H-pyrrol-3-yl)-5-[2-(2-{4-[2-(3-fluoroazetidin-1-yl)ethoxy]phenyl}acetyl)-7-[(3R)-3-methyl-1,2,3,4-tetrahydroisoquinoline-2-carbonyl]-1,2,3,4-tetrahydroisoquinolin-6-yl]-N-(4-hydroxyphenyl)-1,2-dimethyl-1H-pyrrole-3-carboxamide]	0.1 nM	0.2 nM	2.3	0.17 nM	1.3 nM	13.0	–	–	–	0.0118 µM	5.91	0.0697 µM
Cc1c(N(C(=O)c2cc(-c3cc4c(cc3C(=O)N3Cc5ccccc5C[C@H]3C)CN(C(=O)Cc3ccc(OCCNCCF)cc3)CC4)n(C)c2C)c2ccc(O)cc2)cc(C#N)n1C [Example 235]	–	0.13 nM	–	0.11 nM	0.89 nM	–	0.031 nM	4.2	28.7	0.0208 µM	4.7	0.0968 µM

Further lines, with some results ahead:

Ki [1, 8]	Ki [2]	TR_FRET EKI G101V/WT selectivty ratio [3]	Ki [4]	Ki [5]	TR_FRET EKI BCLxL/WT selectivty ratio [5]	Ki ([1]; Ki determined from IC50, read-out: TR_FRET EKI_Bcl2)	TR_FRET EKI G101V/WT selectivty ([3]; ratio of Ki BCL2 G101V to BCL2 WT)	TR_FRET EKI BCLxL/WT selectivty ([5]; ratio of Ki BCLxL to BCL2 WT)	SMILES	IC50 [6]	Ratio (G101V/WT) [7]	IC50 [7]
0.25 nM	2 nM	7.9	0.5 nM	4.3 nM	17.2	–	–	–	Cc1c(N(C(=O)c2cc(-c3cc4c(cc3C(=O)N3Cc5ccccc5C[C@H]3C)CN(C(=O)Cc3cc(F)c(OCCN5CCOCC5)cc3F)CC4)n(C)c2C)c2ccc(O)cc2)cc(C#N)n1C [Example 69, N-(5-cyano-1,2-dimethylpyrrol-3-yl)-5-[2-(2-{2,5-difluoro-4-[2-(morpholin-4-yl)ethoxy]phenyl}acetyl)-7-{[(3R)-3-methyl-3,4-dihydro-1H-isoquinolin-2-yl]carbonyl}-3,4-dihydro-1H-isoquinolin-6-yl]-N-(4-hydroxyphenyl)-1,2-dimethylpyrrole-3-carboxamide]	0.0047 µM	9.23	0.043 µM
0.12 nM	0.4 nM	3.1	0.55 nM	2 nM	16.7	–	–	–	CCn1c(C#N)cc(N(C(=O)c2cc(-c3cc4c(cc3C(=O)N3Cc5ccccc5C[C@H]3C)CN(C(=O)Cc3ccc(OCCN5CCOCC5)cc3)CC4)n(C)c2C)c2ccc(O)cc2)c1C [Example 41, N-(5-cyano-1-ethyl-2-methyl-pyrrol-3-yl)-N-(4-hydroxyphenyl)-1,2-dimethyl-5-[7-[(3R)-3-methyl-3,4-dihydro-1H-isoquinoline-2-carbonyl]-2-[2-[4-(2-morpholinoethoxy)phenyl]acetyl]-3,4-dihydro-1H-isoquinolin-6-yl]pyrrole-3-carboxamide]	0.0094 µM	5.41	0.051 µM
0.04 nM	0.4 nM	8.8	0.11 nM	1.7 nM	39.5	–	–	–	CCN(C[C@@H]1Cc2ccccc2CN1C(=O)c1cc2c(cc1-c1cc(C(=O)N(c3ccc(O)cc3)c3cc(C#N)n(C)c3C)c(C)n1C)CCN(C(=O)Cc1ccc(OCCN3CCOCC3)cc1F)C2)C(C)C [Example 155, N-(5-cyano-1,2-dimethylpyrrol-3-yl)-5-(7-{[(3S)-3-{[ethyl(isopropyl)amino]methyl}-3,4-dihydro-1H-isoquinolin-2-yl]carbonyl}-2-(2-{2-fluoro-4-[2-(morpholin-4-yl)ethoxy]phenyl}acetyl)-3,4-dihydro-1H-isoquinolin-6-yl)-N-(4-hydroxyphenyl)-1,2-dimethylpyrrole-3-carboxamide]	0.0105 µM	8.0857	0.0849 µM
0.08 nM	0.4 nM	5.1	0.17 nM	2.8 nM	35.9	–	–	–	Cc1c(N(C(=O)c2cc(-c3cc4c(cc3C(=O)N3Cc5ccccc5C[C@H]3CN3CCC(C)CC3)CN(C(=O)Cc3ccc(OCCN5CCOCC5)cc3F)CC4)n(C)c2C)c2ccc(O)cc2)cc(C#N)n1C [Example 140]	0.0055 µM	6.2044	0.034 µM
